# In ChEMBL document CHEMBL1201862, “PubChem BioAssay data set” (2004):
# The source made the active and inactive calls.
# How the values were obtained:
# [1] = tested on: Streptococcus sp. 'group A'; assay: growth inhibition of control SK(-) GAS strain, dose response, counter-screen for streptokinase expression inhibitor project, luminescence, kanamycin, BacTiterGlo, confirmation (AID 1900); assay type: functional, organism-based
# [2] = target: T1, Streptokinase A (Streptococcus pyogenes serotype M1, UniProt P10520); assay: S. pyogenes streptokinase expression inhibitors, potency, dose response, plasminogen activation absorbance, OD405 (AID 1914); assay type: functional, Streptococcus pyogenes M1 GAS;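 also: secreted streptokinase activity via plasminogen activation per viability signal from cell pellet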
# T1 sequence (P10520 whole entry): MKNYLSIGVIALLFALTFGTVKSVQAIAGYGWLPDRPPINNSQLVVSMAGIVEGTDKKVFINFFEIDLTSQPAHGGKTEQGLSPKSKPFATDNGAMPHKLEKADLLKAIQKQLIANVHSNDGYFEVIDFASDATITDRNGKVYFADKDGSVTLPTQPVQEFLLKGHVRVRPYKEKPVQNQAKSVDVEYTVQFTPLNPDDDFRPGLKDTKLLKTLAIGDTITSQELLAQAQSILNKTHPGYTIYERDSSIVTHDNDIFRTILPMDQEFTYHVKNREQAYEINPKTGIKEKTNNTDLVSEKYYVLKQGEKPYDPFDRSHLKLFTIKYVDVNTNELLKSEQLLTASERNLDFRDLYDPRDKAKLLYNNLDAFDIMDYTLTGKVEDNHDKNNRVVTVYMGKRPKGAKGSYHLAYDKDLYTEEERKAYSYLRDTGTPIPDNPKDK
# [3] = tested on: Streptococcus; assay: Group A Streptococcus viability loss, dose response, counter-screen for streptokinase expression inhibitor project, luminescence, BacTiterGlo (AID 1915); assay type: functional, organism-based;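 also: potency for reduction of bacterial viability or growth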
# [4] = target: T2, Exodeoxyribonuclease V (Escherichia coli (strain K12), UniProt P04993+P07648+P08394); assay: E. coli RecBCD inhibitors, dose response, counter-screen for AddAB inhibitor project, absorbance, V66 E. coli, mutant T4 phage (AID 492957); assay type: functional, cell-based, Escherichia coli str. K-12 substr. MG1655
# T2 sequence (P04993 whole entry): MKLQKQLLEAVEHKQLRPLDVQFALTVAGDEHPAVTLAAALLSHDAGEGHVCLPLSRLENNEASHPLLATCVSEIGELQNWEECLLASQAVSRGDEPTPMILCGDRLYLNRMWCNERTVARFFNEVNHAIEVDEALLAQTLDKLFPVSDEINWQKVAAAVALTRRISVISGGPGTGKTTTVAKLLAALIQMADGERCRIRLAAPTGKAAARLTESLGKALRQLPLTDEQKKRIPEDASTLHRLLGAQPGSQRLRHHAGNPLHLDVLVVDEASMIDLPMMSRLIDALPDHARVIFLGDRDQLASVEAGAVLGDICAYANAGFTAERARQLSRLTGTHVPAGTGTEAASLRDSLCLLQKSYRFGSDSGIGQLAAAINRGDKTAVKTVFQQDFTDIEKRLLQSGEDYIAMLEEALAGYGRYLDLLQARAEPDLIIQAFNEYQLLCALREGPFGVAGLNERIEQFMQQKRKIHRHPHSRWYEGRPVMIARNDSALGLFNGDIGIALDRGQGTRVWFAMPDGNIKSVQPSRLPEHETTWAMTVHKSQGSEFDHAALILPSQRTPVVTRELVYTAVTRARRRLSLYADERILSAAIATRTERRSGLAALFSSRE
# T2 sequence (P07648 whole entry): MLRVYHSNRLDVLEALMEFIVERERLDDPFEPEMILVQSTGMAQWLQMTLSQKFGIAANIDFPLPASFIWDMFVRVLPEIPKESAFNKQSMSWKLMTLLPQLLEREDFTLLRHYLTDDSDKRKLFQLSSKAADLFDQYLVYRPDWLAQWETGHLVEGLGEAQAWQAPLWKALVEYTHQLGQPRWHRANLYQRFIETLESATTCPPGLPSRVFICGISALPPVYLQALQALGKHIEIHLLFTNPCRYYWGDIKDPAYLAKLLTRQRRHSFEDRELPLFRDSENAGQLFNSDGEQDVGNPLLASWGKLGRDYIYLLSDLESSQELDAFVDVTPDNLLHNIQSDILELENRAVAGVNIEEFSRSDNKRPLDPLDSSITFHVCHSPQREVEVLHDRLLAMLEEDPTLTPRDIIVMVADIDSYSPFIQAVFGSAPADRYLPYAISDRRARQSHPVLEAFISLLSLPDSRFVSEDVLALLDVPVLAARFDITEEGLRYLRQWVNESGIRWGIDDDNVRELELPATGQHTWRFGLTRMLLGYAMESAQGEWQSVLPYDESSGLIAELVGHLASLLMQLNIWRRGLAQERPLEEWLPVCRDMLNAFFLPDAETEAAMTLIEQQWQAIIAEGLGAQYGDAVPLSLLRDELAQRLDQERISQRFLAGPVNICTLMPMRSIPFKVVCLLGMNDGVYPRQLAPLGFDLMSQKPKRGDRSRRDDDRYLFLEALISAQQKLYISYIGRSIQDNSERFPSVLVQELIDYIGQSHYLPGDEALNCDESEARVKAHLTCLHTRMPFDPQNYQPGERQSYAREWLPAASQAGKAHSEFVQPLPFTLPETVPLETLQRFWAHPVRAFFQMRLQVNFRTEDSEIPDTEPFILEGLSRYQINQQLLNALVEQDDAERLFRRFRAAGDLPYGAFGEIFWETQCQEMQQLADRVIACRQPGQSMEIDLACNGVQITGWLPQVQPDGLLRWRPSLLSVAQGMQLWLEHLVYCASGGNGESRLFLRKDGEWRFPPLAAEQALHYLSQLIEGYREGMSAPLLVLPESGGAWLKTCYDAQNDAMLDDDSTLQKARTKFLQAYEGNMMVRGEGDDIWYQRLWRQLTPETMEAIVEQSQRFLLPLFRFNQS
# T2 sequence (P08394 whole entry): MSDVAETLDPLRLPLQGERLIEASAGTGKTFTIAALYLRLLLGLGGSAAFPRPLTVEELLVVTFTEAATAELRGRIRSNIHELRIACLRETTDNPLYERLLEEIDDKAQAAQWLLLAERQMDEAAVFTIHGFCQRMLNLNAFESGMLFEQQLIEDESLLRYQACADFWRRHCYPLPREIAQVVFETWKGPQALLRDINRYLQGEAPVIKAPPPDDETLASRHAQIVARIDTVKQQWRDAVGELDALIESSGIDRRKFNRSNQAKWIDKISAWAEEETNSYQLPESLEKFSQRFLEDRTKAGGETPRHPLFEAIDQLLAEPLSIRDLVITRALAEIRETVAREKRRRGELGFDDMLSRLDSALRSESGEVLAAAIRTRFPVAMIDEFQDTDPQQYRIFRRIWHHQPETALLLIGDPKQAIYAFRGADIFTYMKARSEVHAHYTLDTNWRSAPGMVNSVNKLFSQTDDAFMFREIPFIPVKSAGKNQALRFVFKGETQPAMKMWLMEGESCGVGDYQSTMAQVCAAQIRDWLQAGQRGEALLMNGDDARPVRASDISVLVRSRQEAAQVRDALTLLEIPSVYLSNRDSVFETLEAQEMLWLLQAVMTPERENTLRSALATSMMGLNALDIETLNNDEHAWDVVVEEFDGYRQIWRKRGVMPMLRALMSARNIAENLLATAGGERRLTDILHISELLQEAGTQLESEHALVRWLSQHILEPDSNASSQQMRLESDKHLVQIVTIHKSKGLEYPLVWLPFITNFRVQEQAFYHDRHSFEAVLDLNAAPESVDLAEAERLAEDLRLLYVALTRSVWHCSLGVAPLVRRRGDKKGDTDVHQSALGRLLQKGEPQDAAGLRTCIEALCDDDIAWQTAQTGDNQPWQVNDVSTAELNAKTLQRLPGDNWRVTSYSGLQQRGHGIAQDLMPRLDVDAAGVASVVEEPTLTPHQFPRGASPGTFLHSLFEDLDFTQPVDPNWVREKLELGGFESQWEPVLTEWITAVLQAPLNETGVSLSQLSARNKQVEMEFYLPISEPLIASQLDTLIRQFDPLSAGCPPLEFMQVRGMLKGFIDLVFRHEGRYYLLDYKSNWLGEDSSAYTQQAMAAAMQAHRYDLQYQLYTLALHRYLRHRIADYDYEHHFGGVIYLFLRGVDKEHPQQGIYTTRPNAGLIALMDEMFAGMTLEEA
# [5] = Counterscreen for AddAB inhibitors: absorbance-based bacterial cell-based high throughput dose response assay for inhibitors of bacterial viability. [Related pubchem assays (depositor defined):AID435030, AID449728, AID449731, AID488942, AID488955, AID488956]; assay type: functional
# [6] = target: T3, Probable nicotinate-nucleotide adenylyltransferase (Staphylococcus aureus (strain N315), UniProt P65502); assay type: functional, Staphylococcus aureus subsp. aureus N315;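 as to IC50 Mean: confirmatory dose-response retesting of NadD inhibitor hits first found in an ultra-high-throughput screen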
# [7] = target: T3, Probable nicotinate-nucleotide adenylyltransferase; assay type: functional, Staphylococcus aureus subsp. aureus N315; conditions: read-out: IC50_Mean
# [8] = target: Nonstructural protein 1 (Influenza A virus, UniProt Q194T2); assay type: functional, Influenza A virus (A/California/07/2009(H1N1))
# [9] = HeLa cell cytotoxicity, dose response, cytotoxicity control for MgcRacGAP inhibitor project (AID 624300); assay type: functional
# [10] = target: T4, Rac GTPase-activating protein 1 (Homo sapiens, UniProt Q9H0H5); assay: MgcRacGAP GTPase-activating activity inhibitors, confirmation, biochemical, ADP Hunter fluorescence, primary and confirmatory (AID 624330); assay type: functional
# T4 sequence (Q9H0H5 whole entry): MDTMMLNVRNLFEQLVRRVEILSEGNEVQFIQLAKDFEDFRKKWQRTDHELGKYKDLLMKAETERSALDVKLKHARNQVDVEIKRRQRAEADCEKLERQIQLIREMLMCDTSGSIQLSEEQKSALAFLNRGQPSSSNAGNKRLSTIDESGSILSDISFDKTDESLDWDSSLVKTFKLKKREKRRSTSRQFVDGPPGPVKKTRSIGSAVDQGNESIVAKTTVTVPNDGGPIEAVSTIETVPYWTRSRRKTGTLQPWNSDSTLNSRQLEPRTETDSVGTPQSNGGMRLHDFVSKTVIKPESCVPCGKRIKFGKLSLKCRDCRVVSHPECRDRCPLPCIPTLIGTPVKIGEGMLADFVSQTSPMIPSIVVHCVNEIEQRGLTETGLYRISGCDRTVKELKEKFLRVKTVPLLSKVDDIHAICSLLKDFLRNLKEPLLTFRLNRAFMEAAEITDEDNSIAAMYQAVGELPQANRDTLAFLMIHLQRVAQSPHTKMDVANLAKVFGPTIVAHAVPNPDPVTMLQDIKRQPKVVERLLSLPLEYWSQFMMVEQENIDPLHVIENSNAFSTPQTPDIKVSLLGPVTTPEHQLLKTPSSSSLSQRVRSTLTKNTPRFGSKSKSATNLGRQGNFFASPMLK
# [11] = inhibitors of TNFa-stimulated NF-kB luciferase reporter, dose response, selectivity assay for EBV LMP1 NF-kB inhibitor project, HEK293 LMP1 reporter cells, dry powder, set 2 (AID 624369); assay type: functional
# [12] = HEK293 cell viability, dose response, counter-screen for EBV LMP1 inhibitor project, dry powder, set 2 (AID 624374); assay type: functional
# [13] = target: Fructose-bisphosphate aldolase (Mycobacterium tuberculosis, UniProt P9WQA3); assay: Fluorescence-based biochemical high throughput dose response assay for inhibitors of the fructose-bisphosphate aldolase (FBA) of M. tuberculosis.; assay type: functional
# [14] = HepG2 cell cytotoxicity, dose response, cytotoxicity control, cherry-picks, set 5 (AID 1053118); assay type: functional, cell-based
# [15] = target: Protein S100-A4 (Homo sapiens, UniProt P26447); assay: S100A4-myosin IIA binding inhibitor potency, dose response, biochemical, fluorescence polarization, cherry-picked hits (AID 687001); assay type: functional
# [16] = target: Albumin (Bos taurus, UniProt P02769); assay: Counterscreen for inhibitors of T-cell receptor (TCR)-CD3 interaction: Fluorescence-based biochemical high throughput dose response assay to identify inhibitors of T-cell receptor (TCR)-CD3 interaction using a TAMRA-labeled BSA probe.; assay type: functional
# [17] = target: Protein Wnt-3a (Mus musculus, UniProt P27467); assay: SAR analysis of small molecule antagonists of Gli-SUFU in a Wnt3a luminescent reporter assay.; assay type: functional
# [18] = target: T5, Beta-2 adrenergic receptor (Homo sapiens, UniProt P07550); assay: beta2AR agonists driving receptor internalization, dose response, cell-based, FAP fluorogen, flow cytometry, cherry pick 1 (AID 588763); assay type: functional
# [19] = target: T5, Beta-2 adrenergic receptor; assay: Dose response for HTS for Beta-2AR agonists via FAP method from Powderset3.; assay type: functional
# [20] = tested on: HeLa; assay: HeLa cell cytotoxicity, dose response, cytotoxicity control, ATP luminescence, cherry-pick samples (AID 687004); assay type: functional, cell-based; conditions: Homo sapiens
# T5 sequence (P07550 whole entry): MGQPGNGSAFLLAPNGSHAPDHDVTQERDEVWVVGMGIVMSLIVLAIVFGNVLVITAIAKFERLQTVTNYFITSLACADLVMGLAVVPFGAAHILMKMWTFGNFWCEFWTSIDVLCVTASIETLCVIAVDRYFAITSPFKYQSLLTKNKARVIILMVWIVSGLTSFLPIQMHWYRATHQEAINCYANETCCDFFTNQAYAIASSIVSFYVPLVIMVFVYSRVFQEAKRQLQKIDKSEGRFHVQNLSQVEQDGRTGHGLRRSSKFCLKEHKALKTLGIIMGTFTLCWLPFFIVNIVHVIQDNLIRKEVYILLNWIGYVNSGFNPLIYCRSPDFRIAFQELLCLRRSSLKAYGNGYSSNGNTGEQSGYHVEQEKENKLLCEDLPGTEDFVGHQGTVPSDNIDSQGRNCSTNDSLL
# T3 sequence (P65502 whole entry): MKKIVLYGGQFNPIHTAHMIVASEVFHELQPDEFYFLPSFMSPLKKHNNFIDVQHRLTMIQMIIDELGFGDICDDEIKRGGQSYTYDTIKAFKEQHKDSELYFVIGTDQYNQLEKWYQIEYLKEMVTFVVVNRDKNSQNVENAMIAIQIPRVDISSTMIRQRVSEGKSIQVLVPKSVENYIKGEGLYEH
# Chain of Protein Wnt-3a (P27467 whole entry): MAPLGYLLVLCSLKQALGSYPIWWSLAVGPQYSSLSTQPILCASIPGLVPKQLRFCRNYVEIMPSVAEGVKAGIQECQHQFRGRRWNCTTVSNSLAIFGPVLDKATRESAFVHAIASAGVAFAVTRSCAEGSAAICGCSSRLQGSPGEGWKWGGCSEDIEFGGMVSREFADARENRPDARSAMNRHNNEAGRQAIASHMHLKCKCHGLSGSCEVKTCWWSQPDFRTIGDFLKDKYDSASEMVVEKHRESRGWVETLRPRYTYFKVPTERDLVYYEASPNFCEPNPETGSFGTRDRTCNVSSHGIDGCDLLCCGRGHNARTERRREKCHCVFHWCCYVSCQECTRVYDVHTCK
# Chain of Fructose-bisphosphate aldolase (P9WQA3 whole entry): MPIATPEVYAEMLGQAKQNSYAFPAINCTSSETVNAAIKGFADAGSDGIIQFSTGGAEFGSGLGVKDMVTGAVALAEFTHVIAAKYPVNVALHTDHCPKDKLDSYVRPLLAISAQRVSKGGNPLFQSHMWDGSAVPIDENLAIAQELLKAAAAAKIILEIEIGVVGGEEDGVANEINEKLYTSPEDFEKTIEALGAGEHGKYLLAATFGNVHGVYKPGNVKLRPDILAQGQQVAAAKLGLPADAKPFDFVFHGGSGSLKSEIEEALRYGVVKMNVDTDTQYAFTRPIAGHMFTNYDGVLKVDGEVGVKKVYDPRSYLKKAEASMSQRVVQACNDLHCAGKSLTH
# Chain of Albumin (P02769 whole entry): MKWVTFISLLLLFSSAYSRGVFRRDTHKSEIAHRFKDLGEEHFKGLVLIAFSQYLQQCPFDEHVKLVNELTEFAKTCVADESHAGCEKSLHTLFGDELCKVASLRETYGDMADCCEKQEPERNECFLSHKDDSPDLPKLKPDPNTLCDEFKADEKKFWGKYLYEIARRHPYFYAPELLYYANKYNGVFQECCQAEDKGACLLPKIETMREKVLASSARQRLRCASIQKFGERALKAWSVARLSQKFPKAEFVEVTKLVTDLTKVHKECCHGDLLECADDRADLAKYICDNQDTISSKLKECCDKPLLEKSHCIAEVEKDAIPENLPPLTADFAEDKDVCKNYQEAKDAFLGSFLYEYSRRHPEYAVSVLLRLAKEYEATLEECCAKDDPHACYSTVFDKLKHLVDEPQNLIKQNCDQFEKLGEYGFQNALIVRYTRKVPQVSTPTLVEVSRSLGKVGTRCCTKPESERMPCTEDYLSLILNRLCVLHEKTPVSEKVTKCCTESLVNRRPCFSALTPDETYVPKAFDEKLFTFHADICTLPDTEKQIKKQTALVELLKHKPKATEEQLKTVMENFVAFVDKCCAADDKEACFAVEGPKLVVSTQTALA
# Chain of Protein S100-A4 (P26447 whole entry): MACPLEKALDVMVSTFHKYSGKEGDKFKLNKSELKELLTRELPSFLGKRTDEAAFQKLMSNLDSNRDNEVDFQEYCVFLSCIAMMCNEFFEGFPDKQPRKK
# Chain of Nonstructural protein 1 (Q194T2 whole entry): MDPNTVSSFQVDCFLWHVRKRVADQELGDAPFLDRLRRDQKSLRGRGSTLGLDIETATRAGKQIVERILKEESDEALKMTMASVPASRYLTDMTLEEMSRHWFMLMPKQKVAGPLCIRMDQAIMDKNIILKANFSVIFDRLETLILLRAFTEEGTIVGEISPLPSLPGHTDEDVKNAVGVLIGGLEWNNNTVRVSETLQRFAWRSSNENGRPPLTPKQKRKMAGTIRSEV
compound,measurement,setting,value
Cc1c(C(=O)NNC(=O)c2ccccc2O)oc2ccc(Br)cc12,EC50,[1],8.43 µM (active)
same,EC50,[2],> 150 µM (not active)
same,EC50,[3],8.5 µM (active)
same,IC50,[4],> 119 µM (inactive)
same,IC50,[5],> 119 µM (inactive)
same,IC50,[6],15.3 µM (active)
same,IC50,[7],45.8 µM (active)
CN(C)c1ccc(C=c2c3ccccc3n3c2cc(-c2ccc(Cl)cc2)[n+]3C)cc1,IC50,[8],5.85 µM (active)
same,CC50,[9],18.9 µM (active)
same,IC50,[10],44.9 µM (active)
COc1cccc(C#Cc2ccc([C@@H]3[C@@H](C#N)N(C(=O)c4ccccn4)[C@@H]3CO)cc2)c1,AbsAC35,[11],84.96 µM
same,AbsAC35,[12],328.8 µM
COc1ccc2nc(NCCCNC(=O)c3cc(OC)c(OC)c(OC)c3)c(C#N)cc2c1,IC50,[13],1.78 µM (active)
CO[C@H]1CN(C)C(=O)c2ccc(NC(=O)Nc3ccc(Cl)c(Cl)c3)cc2OC[C@H](C)NC[C@H]1C,AC50,[14],13.5 µM (active)
CSCc1cc(C(=O)NC2CC2)c(N)s1,AC50,[15],17.5 µM (active)
O=C(NNC(=O)C1CCN(S(=O)(=O)c2ccccc2C(F)(F)F)CC1)c1ccccc1O,IC50,[4],> 119 µM (inactive)
same,IC50,[5],> 119 µM (inactive)
same,IC50,[16],> 94.1 µM (inactive)
O=C(Nc1cc(N2CCCCC2)ncn1)c1ccco1,IC50,[17],> 21.8 µM (inactive)
Cc1ccc(OCc2cc(C(=O)N(C)Cc3cnn(-c4ccccc4C)c3)no2)cn1,EC50,[18],0.305 µM (active)
same,EC50,[19],0.0555 µM (active)
COc1cccc(S(=O)(=O)N2C[C@@H](O)COC[C@H]3O[C@H](CC(=O)Nc4ccccc4)CC[C@@H]32)c1,AC50,[20],> 52 µM (inactive)
